From patent publication US20100298141A1, “SUBSTITUTED PYRIDINE N-OXIDE HERBICIDES” (E. I. DU PONT DE NEMOURS AND COMPANY, priority 2007, published 2010)

Key:
morningglory = assay: Test A pre-/postemergence greenhouse test; format: in vivo, Ipomoea spp.; conditions: for Plant response rating, Morningglory: 0 to 100 scale where 0 is no effect and 100 is complete control; for Morningglory plant response rating: 0 to 100 scale
Summary of the method: (§1)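 Untreated controls served as the reference for visual injury ratings taken about ten days after spraying. The non-phytotoxic solvent/surfactant formulation was applied preemergence to seeded loam and sand and postemergence to plants two to ten cm high.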

redroot pigweed = assay: Test A pre-/postemergence greenhouse test; format: in vivo, Amaranthus retroflexus; conditions: for Plant response rating, Pigweed: 0 to 100 scale where 0 is no effect and 100 is complete control; for Pigweed plant response rating: 0 to 100 scale
Summary of the method: as §1

blackgrass = assay: Test C pre-/postemergence test; format: in vivo, Alopecurus myosuroides
Summary of the method: (§2)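 Compounds in a non-phytotoxic solvent with surfactant applied preemergence to seeded pots and, at the same time, postemergence to plants 2–18 cm tall (1- to 4-leaf stage). Paddy tests: pots flooded to 3 cm, compound applied into the water, depth held throughout.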

downy brome = assay: Test C pre-/postemergence test; format: in vivo, Bromus tectorum
Summary of the method: as §2

green foxtail = assay: Test C pre-/postemergence test; format: in vivo, Setaria viridis
Summary of the method: as §2

wild oat = assay: Test C pre-/postemergence test; format: in vivo, Avena fatua
Summary of the method: as §2

catchweed bedstraw = assay: Test C pre-/postemergence test; format: in vivo, Galium aparine
Summary of the method: as §2

bermudagrass = assay: Test C pre-/postemergence test; format: in vivo, Cynodon dactylon
Summary of the method: as §2

cocklebur = assay: Test C pre-/postemergence test; format: in vivo, Xanthium strumarium; conditions: for Cocklebur plant response rating: preemergence, scale 0 (no effect) to 100 (complete control)
Summary of the method: as §2

woolly cupgrass = assay: Test C pre-/postemergence test; format: in vivo, Eriochloa villosa
Summary of the method: as §2

kochia = assay: Test C pre-/postemergence test; format: in vivo, Kochia scoparia
Summary of the method: as §2

lambsquarters = assay: Test C pre-/postemergence test; format: in vivo, Chenopodium album
Summary of the method: as §2

yellow nutsedge = assay: Test C pre-/postemergence test; format: in vivo, Cyperus esculentus
Summary of the method: as §2

soybean = assay: Test C pre-/postemergence test; format: in vivo, Glycine max
Summary of the method: as §2

rice = assay: Test C flooded paddy test; format: in vivo, Oryza sativa; conditions: Flood
Summary of the method: (§3)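 Ratings were visual and made relative to untreated controls after 13 to 15 greenhouse days.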

duck salad = assay: Test C flooded paddy test; format: in vivo, Heteranthera limosa; conditions: Flood
Summary of the method: as §3

[1] = Postemergence, 500 g ai/ha, 0 is no effect, 100 is complete control
[2] = Preemergence, 125 g ai/ha, 0 no effect, 100 complete control
[3] = 62 g ai/ha, Preemergence, scale 0 to 100
[4] = 125 g ai/ha, preemergence, scale 0 (no effect) to 100 (complete control)
[5] = Postemergence, 62 g ai/ha, scale 0 to 100, 0 no effect, 100 complete control
[6] = Postemergence, 125 g ai/ha, scale 0 to 100, 0 no effect, 100 complete control
[7] = Postemergence, 250 g ai/ha, scale 0 to 100, 0 no effect, 100 complete control
[8] = Preemergence, 31 g ai/ha, scale 0 to 100 (0 no effect, 100 complete control)
[9] = preemergence, 250 g ai/ha, scale 0 (no effect) to 100 (complete control)
[10] = 62 g ai/ha, scale 0 to 100 (0 no effect, 100 complete control)
[11] = 250 g ai/ha, scale 0 to 100, 0 no effect, 100 complete control, 13 to 15 days

For Cn1nc(C(F)(F)F)c(C[S+]([O-])c2ccc(Cl)c[n+]2[O-])c1OCC(F)(F)F (racemic) [Compound 62], the “Plant response rating, Morningglory” value (morningglory; Postemergence, 125 g ai/ha) was 90, the “Morningglory plant response rating” value (morningglory; [1]) was 100 and the “Morningglory plant response rating” value (morningglory; [2]) was 90. The “Plant response rating, Morningglory” value (morningglory; Preemergence, 500 g ai/ha) was 100, the “Plant response rating, Pigweed” value (redroot pigweed; Postemergence, 125 g ai/ha) was 60 and the “Pigweed plant response rating” value (redroot pigweed; [1]) was 80. For the same molecule, the “Pigweed plant response rating” value (redroot pigweed; [2]) was 100, the “Plant response rating, Pigweed” value (redroot pigweed; Preemergence, 500 g ai/ha) was 100 and the “Blackgrass plant response rating” value (blackgrass; [3]) was 98. For the same molecule, the “Blackgrass plant response rating” value (blackgrass; [4]) was 100, the “Plant response rating (0 to 100), Blackgrass” value (blackgrass; Postemergence, 31 g ai/ha) was 40 and the “Plant response rating, Blackgrass” value (blackgrass; [5]) was 40. For the same molecule, the “Plant response rating, Blackgrass” value (blackgrass; [6]) was 60, the “Plant response rating, Blackgrass” value (blackgrass; [7]) was 80 and the “Plant response rating, Blackgrass” value (blackgrass; [8]) was 90. The “Blackgrass plant response rating” value (blackgrass; [9]) was 100, the “Bromegrass, Downy plant response rating” value (downy brome; [3]) was 50 and the “Bromegrass, Downy plant response rating” value (downy brome; [4]) was 70. For the same molecule, the “Plant response rating (0 to 100), Bromegrass, Downy” value (downy brome; Postemergence, 31 g ai/ha) was 0, the “Plant response rating, Bromegrass, Downy” value (downy brome; [5]) was 0 and the “Plant response rating, Bromegrass, Downy” value (downy brome; [6]) was 45. The “Plant response rating, Bromegrass, Downy” value (downy brome; [7]) was 60, the “Plant response rating, Bromegrass, Downy” value (downy brome; [8]) was 50 and the “Bromegrass, Downy plant response rating” value (downy brome; [9]) was 85. For the same molecule, the “Foxtail, Green plant response rating” value (green foxtail; [3]) was 100, the “Foxtail, Green plant response rating” value (green foxtail; [4]) was 100 and the “Plant response rating (0 to 100), Foxtail, Green” value (green foxtail; Postemergence, 31 g ai/ha) was 0. The “Plant response rating, Foxtail, Green” value (green foxtail; [5]) was 20, the “Plant response rating, Foxtail, Green” value (green foxtail; [6]) was 40 and the “Plant response rating, Foxtail, Green” value (green foxtail; [7]) was 80. For the same molecule, the “Plant response rating, Foxtail, Green” value (green foxtail; [8]) was 80, the “Foxtail, Green plant response rating” value (green foxtail; [9]) was 100 and the “Oat, Wild plant response rating” value (wild oat; [3]) was 85. The “Oat, Wild plant response rating” value (wild oat; [4]) was 95, the “Plant response rating (0 to 100), Oat, Wild” value (wild oat; Postemergence, 31 g ai/ha) was 0 and the “Plant response rating, Oat, Wild” value (wild oat; [5]) was 0. For the same molecule, the “Plant response rating, Oat, Wild” value (wild oat; [6]) was 30, the “Plant response rating, Oat, Wild” value (wild oat; [7]) was 50 and the “Plant response rating, Oat, Wild” value (wild oat; [8]) was 70. For the same molecule, the “Oat, Wild plant response rating” value (wild oat; [9]) was 100, the “Galium plant response rating” value (catchweed bedstraw; [3]) was 100 and the “Galium plant response rating” value (catchweed bedstraw; [4]) was 100. The “Plant response rating, Galium” value (catchweed bedstraw; [8]) was 100, the “Galium plant response rating” value (catchweed bedstraw; [9]) was 100 and the “Bermudagrass plant response rating” value (bermudagrass; 62 g ai/ha, Preemergence, scale 0 to 100 (0 no effect, 100 complete control)) was 100. For the same molecule, the “Bermudagrass plant response rating” value (bermudagrass; [4]) was 100, the “Plant response rating (0 to 100), Bermudagrass” value (bermudagrass; Postemergence, 31 g ai/ha) was 0 and the “Plant response rating, Bermudagrass” value (bermudagrass; [5]) was 0. For the same molecule, the “Plant response rating, Bermudagrass” value (bermudagrass; [6]) was 30, the “Plant response rating, Bermudagrass” value (bermudagrass; [7]) was 35 and the “Plant response rating, Bermudagrass” value (bermudagrass; [8]) was 100. The “Bermudagrass plant response rating” value (bermudagrass; [9]) was 100, the “Cocklebur plant response rating” value (cocklebur; 125 g ai/ha) was 30 and the “Plant response rating (0 to 100), Cocklebur” value (cocklebur; Postemergence, 31 g ai/ha) was 0. The “Plant response rating, Cocklebur” value (cocklebur; [5]) was 0, the “Plant response rating, Cocklebur” value (cocklebur; [6]) was 0 and the “Plant response rating, Cocklebur” value (cocklebur; [7]) was 0. The “Plant response rating, Cocklebur” value (cocklebur; [8]) was 0, the “Cocklebur plant response rating” value (cocklebur; 250 g ai/ha) was 60 and the “Cupgrass, Woolly plant response rating” value (woolly cupgrass; [3]) was 70. For the same molecule, the “Cupgrass, Woolly plant response rating” value (woolly cupgrass; [4]) was 100, the “Plant response rating (0 to 100), Cupgrass, Woolly” value (woolly cupgrass; Postemergence, 31 g ai/ha) was 0 and the “Plant response rating, Cupgrass, Woolly” value (woolly cupgrass; [5]) was 0. The “Plant response rating, Cupgrass, Woolly” value (woolly cupgrass; [6]) was 0, the “Plant response rating, Cupgrass, Woolly” value (woolly cupgrass; [7]) was 50 and the “Plant response rating, Cupgrass, Woolly” value (woolly cupgrass; [8]) was 0. The “Cupgrass, Woolly plant response rating” value (woolly cupgrass; [9]) was 100, the “Kochia plant response rating” value (kochia; [3]) was 90 and the “Kochia plant response rating” value (kochia; [4]) was 100. For the same molecule, the “Plant response rating (0 to 100), Kochia” value (kochia; Postemergence, 31 g ai/ha) was 0, the “Plant response rating, Kochia” value (kochia; [5]) was 0 and the “Plant response rating, Kochia” value (kochia; [6]) was 0. The “Plant response rating, Kochia” value (kochia; [7]) was 10, the “Plant response rating, Kochia” value (kochia; [8]) was 85 and the “Kochia plant response rating” value (kochia; [9]) was 100. The “Lambsquarters plant response rating” value (lambsquarters; [3]) was 100, the “Lambsquarters plant response rating” value (lambsquarters; [4]) was 100 and the “Plant response rating (0 to 100), Lambsquarters” value (lambsquarters; Postemergence, 31 g ai/ha) was 0. The “Plant response rating, Lambsquarters” value (lambsquarters; [5]) was 0, the “Plant response rating, Lambsquarters” value (lambsquarters; [6]) was 0 and the “Plant response rating, Lambsquarters” value (lambsquarters; [7]) was 0. For the same molecule, the “Plant response rating, Lambsquarters” value (lambsquarters; [8]) was 100, the “Lambsquarters plant response rating” value (lambsquarters; [9]) was 100 and the “Nutsedge, Yellow plant response rating” value (yellow nutsedge; [3]) was 40. The “Nutsedge, Yellow plant response rating” value (yellow nutsedge; [4]) was 70, the “Plant response rating (0 to 100), Nutsedge, Yellow” value (yellow nutsedge; Postemergence, 31 g ai/ha) was 0 and the “Plant response rating, Nutsedge, Yellow” value (yellow nutsedge; [5]) was 0. For the same molecule, the “Plant response rating, Nutsedge, Yellow” value (yellow nutsedge; [6]) was 0, the “Plant response rating, Nutsedge, Yellow” value (yellow nutsedge; [7]) was 0 and the “Plant response rating, Nutsedge, Yellow” value (yellow nutsedge; [8]) was 0. For the same molecule, the “Nutsedge, Yellow plant response rating” value (yellow nutsedge; [9]) was 100, the “Soybean plant response rating” value (soybean; [3]) was 100 and the “Soybean plant response rating” value (soybean; [4]) was 100. For the same molecule, the “Plant response rating (0 to 100), Soybean” value (soybean; Postemergence, 31 g ai/ha) was 30, the “Plant response rating (0 to 100), Soybean” value (soybean; Postemergence, 62 g ai/ha) was 50 and the “Plant response rating, Soybean” value (soybean; [6]) was 60. The “Plant response rating, Soybean” value (soybean; [8]) was 70, the “Plant response rating, Rice” value (rice; [10]) was 60 and the “Plant response rating, Rice” value (rice; [11]) was 90. For the same molecule, the “Plant response rating, Ducksalad” value (duck salad; [10]) was 70 and the “Plant response rating, Ducksalad” value (duck salad; [11]) was 85.
